The results in this text go back to patent US20130150354A1, “NEW SELECTIVE CCR2 ANTAGONISTS” (BOEHRINGER INGELHEIM INTERNATIONAL GMBH, priority 2011, published 2013).

Test [1] has as its target T1, CCR2 (Homo sapiens, UniProt P41597).
T1 construct: Membranes were prepared from THP-1 cells; endogenous in cells; host or cells: THP-1 (human acute monocytic leukaemia cells), membrane preparation
T1 sequence (P41597 1-360 isoform P41597-2): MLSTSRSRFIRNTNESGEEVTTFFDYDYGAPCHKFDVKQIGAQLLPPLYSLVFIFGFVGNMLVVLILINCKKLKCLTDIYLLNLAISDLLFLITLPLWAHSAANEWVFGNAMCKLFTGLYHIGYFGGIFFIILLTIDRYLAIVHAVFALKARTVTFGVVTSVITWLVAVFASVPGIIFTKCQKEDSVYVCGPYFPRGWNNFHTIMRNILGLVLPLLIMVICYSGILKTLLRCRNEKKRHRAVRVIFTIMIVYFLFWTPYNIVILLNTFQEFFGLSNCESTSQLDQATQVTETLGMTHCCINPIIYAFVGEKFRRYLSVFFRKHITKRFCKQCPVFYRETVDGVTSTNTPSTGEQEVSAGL
Briefly: CCR2 receptor membrane binding assay (THP-1 membranes, 125I-MCP-1, SPA beads). The following applies: THP-1 cell membranes, 125I-MCP-1, 8 h; read-out: hKi [nM] (CCR2). The protocol:
The above exemplary substances have been tested for binding to CCR2 using a binding assay as outlined herein below:
THP-1 cells (human acute monocytic leukaemia cells) were cultured under standardized conditions at 37° C. and 5% CO2 in a humidified incubator. THP-1 cells were cultivated in RPMI 1640 medium (Gibco 21875) containing 1% MEM-NEAA (Gibso 11140) 2 mM L-glutamine, 1.5 g/L sodium bicarbonate, 4.5 g/L glucose, 10 mM HEPES and 1.0 mM sodium pyruvate, 90%; 10% fetal calf serum (FCS Gibco 10500-064).
Membranes were prepared from THP-1 cells. THP-1 cells were centrifuged at 300×g at 4° C. for 10 min. The cell pellet was resuspendet in Phosphate Buffer Saline (PBS, including 10 μM Pefabloc and a protease inhibitor mix ‘complete’, Boehringer Mannheim (1 tablet/50 ml)), to a concentration of […]. The membrane preparation was performed by disrupting the cells by nitrogen […] (at 50 bar, for 1 h) in a “Nitrogen Bombe” (Parr Instrument). Cell debris was removed by centrifugation (800×g at 4° C., 1 min). The supernatant was centrifuged at 80000×g, 4° C. for 30 min to sediment the cell membranes. Usually 50 mg of protein (Bradford assay) were yielded from 1×10E9 cells. The membranes were resuspendet in 25 mM HEPES, 25 mM MgCl2, 1 mM CaCl2, 10% Glycerine for storage in aliquots at −80° C. in 25 mM HEPES, 25 mM MgCl2, 1 mM CaCl2, 10% Glycerine and stored at −80° C.
Perkin Elmer NEX 332 Jod^125 MCP-1, Stock: 2200 Ci/mmol solved in 2000 μl assay buffer, stored at −20° C. THP-1 membrane were adjusted with 25 mM HEPES, pH 7.2; 5 mM MgCl2; 0.5 mM CaCl2; 0.2% BSA assay buffer to a concentration of 2.5 μg/15 μl. Amersham Biosciences PVT-WGA Beads (RPNQ0001) were adjusted with assay buffer to a concentration of 0.24 mg/30 μl. For preparation of the membrane-bead-suspension membranes and beads were incubated for 30 min at RT under rotation (60 rpm) with a ratio of 1:2. Test compounds dissolved in 100% DMSO to a concentration of 10 mM and are further diluted with 100% DMSO to 1 mM. All additional compound dilutions were obtained with assay buffer, final 1% DMSO. Compounds, membrane-bead-suspension and [^125]MCP-1 (ca. 25000 cpm/10 μl) were incubated. Bound radioactivity was determined by scintillation counter after 8 h. Determination of affinity of test compounds (dissociation constant hKi) is calculated by iterative fitting of experimental data using the “easy sys” program, which is based on law of mass action (Schittkowski K. (1994), Numerische Mathematik, Vol. 68, 129-142).

The target of test [2] is T2, human CCR5 (Homo sapiens, UniProt P51681).
T2 construct: expressed in transfected cells; host or cells: CHO cells co-expressing Gα16, grown under puromycin and zeocin selection; membrane preparation
Briefly: CCR5 receptor membrane binding assay (CHO (Gα16) human CCR5 membranes, [125I]RANTES, SPA beads). The following applies: 6 h, read-out: hKi [nM] (CCR5). The protocol: The above exemplary substances have been tested for binding to CCR5 using a binding assay as outlined herein below:
CHO, (Gα16) human CCR5 cells were cultured under standardized conditions at 37° C. and 5% CO2 in a humidified incubator. CHO (Gα16) human CCR5 cells were cultivated in Ham's F12 (Invitrogen; #31765068) supplemented with 10 µg/ml Puromycin (Invitrogen; #A11139-03), 200 µg/ml Zeocin (Invitrogen; #45-0003) and 10% FCS (Gibco; #10500-064).
Membranes were prepared from CHO (Gα16) human CCR5 cells. Cells were cultured on […] plates (Nunc; #166508) 2-3 days before membrane preparation (usually 80-100 plates to obtain 80 mg protein).
Cells were scraped off the plates with a big scraper and washed with 2×5 ml ice cold Phosphate Buffer Saline (PBS; Invitrogen; #14040-174). Cell suspension was collected in a glass bottle (on ice). Cell suspension was harvested at 1400 rpm and 4° C. for 10 min and washed in PBS. Cell pellet was resuspended in 40 ml PBS with protease inhibitor mix ‘complete’ (Roche; #11873580001; 1 tablet/50 ml).
For gentle cell disruption the membrane preparation was performed by using a homogenizer (potter). Cells were homogenized for 5-10 min.
Membranes were centrifuged at 1000 rpm and 4° C. for 5 min. Supernatant (=membrane) was harvested in a new falcon tube and remaining cell pellet homogenized again for 5-10 min with PBS with protease inhibitor mix and centrifuged. Collected supernatant was centrifuged at 40000 rpm and 4° C. for 30 min to sediment the cell membranes.
The membranes were resuspended in 25 mM HEPES, 25 mM MgCl2, 1 mM CaCl2, 10% Glycerine for storage in aliquots at −80° C. Membranes were diluted to a concentration of 5 mg/ml (Bradford Assay).
[^125I]RANTES, Stock: 1825 Ci/mmol, 25 μCi (Bio Trend #A3-AI-676) was solved in 1000 μl assay buffer (100 mM NaCl; 10 mM MgCl2; 50 mM Tris-HCl; 1 mM EDTA; 0.1% BSA, pH 7.6), stored at −20° C.
CHO (Gα16) human CCR5 membrane were solved on ice and adjusted with assay buffer to a concentration of 2.5 μg/15 μl.
Amersham Biosciences PVT-WGA Beads (GE Healthcare; #RPNQ0001) were adjusted with assay buffer to a concentration of 8 mg/ml. For preparation of the membrane-bead-suspension, membranes and beads were incubated for 30 min at RT under rotation with a ratio of 1:2.
Test compounds dissolved in 100% DMSO to a concentration of 10 mM and are further diluted with 100% DMSO to 1 mM. All additional compound dilutions were obtained with assay buffer, final 1% DMSO. 7 μl compound dilution, 45 μl membrane-bead-suspension and 10 μl [^125I]RANTES (ca. 20000 cpm/10 μl) were incubated at RT. Bound radioactivity was determined by scintillation counter after 6 h. Determination of affinity of test compounds (dissociation constant Ki) is calculated by iterative fitting of experimental data using the “easy sys” program, which is based on law of mass action (Schittkowski K. (1994), Numerische Mathematik, Vol. 68, 129-142).

T2 sequence (P51681 whole entry): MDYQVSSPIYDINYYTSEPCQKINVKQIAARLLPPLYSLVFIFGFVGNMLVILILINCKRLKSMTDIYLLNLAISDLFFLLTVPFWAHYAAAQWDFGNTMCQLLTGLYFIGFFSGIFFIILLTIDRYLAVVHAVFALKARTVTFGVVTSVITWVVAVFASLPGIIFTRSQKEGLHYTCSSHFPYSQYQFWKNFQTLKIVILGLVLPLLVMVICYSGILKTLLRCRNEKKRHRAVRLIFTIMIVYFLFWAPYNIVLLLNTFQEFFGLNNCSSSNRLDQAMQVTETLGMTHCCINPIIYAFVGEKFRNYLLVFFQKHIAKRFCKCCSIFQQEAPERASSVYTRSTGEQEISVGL

Take `COc1nc(Nc2ccc(Cl)c(Cl)c2)c(C)c(C(=O)N2CCC(N3CCO[C@H]4COCC[C@H]43)CC2)n1` (single isomer, unassigned) [Example 37a]: the Ki worked out at 1 nM in test [1] and 300 nM in test [2].
As to `Cc1c(C(=O)N2CCC(N3C[C@H]4C[C@@H](N(C)S(C)(=O)=O)C[C@H]4C3)CC2)ncnc1N1CCc2ccc(C(F)(F)F)cc2C1` [Example 7], the Ki in test [1] turned out to be 0.6 nM; in test [2], 420 nM.
